In ChEMBL document CHEMBL5532713, “Ergone Derivatives from the Deep-Sea-Derived Fungus Aspergillus terreus YPGA10 and 25,28-Dihydroxyergone-Induced Apoptosis in Human Colon Cancer SW620 Cells” (J Nat Prod, 2024):
One block for each compound: values may come before it. Active and inactive are the calls of the source. The calls are words filed in the database; no cut-off is given here.

Tests used:
U-937 [1] = assay: Effect on cell survival in RSL3-induced human U-937 cells at 50 uM; format: functional, cell-based
SW-620 [2] = assay: Induction of apoptosis in human SW-620 cells assessed as viable cells at 2.5 uM incubated for 48 hrs by Annexin V FITC/PI staining based flow cytometry analysis (reference value: 90.0 %); format: functional; conditions: read-out: Activity
PANC-1 = assay: Antiproliferative activity against human PANC-1 cells assessed as reduction in cell viability by CCK-8 assay; format: functional, cell-based
SMMC-7721 = assay: Antiproliferative activity against human SMMC-7721 cells assessed as reduction in cell viability by CCK-8 assay; format: functional, cell-based
[3] = Cytotoxicity against human BEAS-2B cells assessed as inhibition of cell growth at 40 uM incubated for 48 hrs by CCK-8 assay relative to control; format: toxicity, cell-based
SW-620 [4] = assay: Induction of apoptosis in human SW-620 cells assessed as early apoptotic cells at 2.5 uM incubated for 48 hrs by Annexin V FITC/PI staining based flow cytometry analysis (reference value: 5.00 %); format: functional
SW-620 [5] = assay: Induction of apoptosis in human SW-620 cells assessed as necrotic cells at 5 uM incubated for 48 hrs by Annexin V FITC/PI staining based flow cytometry analysis (reference value: 0.057 %); format: functional
SW-620 [6] = assay: Induction of apoptosis in human SW-620 cells assessed as early apoptotic cells at 1.25 uM incubated for 48 hrs by Annexin V FITC/PI staining based flow cytometry analysis (reference value: 5.00 %); format: functional
MCF7 = assay: Antiproliferative activity against human MCF7 cells assessed as reduction in cell viability by CCK-8 assay; format: functional, cell-based; conditions: dose 40.0 µM, time 48.0 hrs
SW-620 [7] = assay: Induction of apoptosis in human SW-620 cells assessed as late apoptotic cells at 1.25 uM incubated for 48 hrs by Annexin V FITC/PI staining based flow cytometry analysis (reference value: 4.90 %); format: functional
SW-620 [8] = assay: Induction of apoptosis in human SW-620 cells assessed as increase in Bax/Bcl-2 ratio incubated for 48 hrs by Western blotting analysis; format: functional, cell-based; conditions: dose 1.25-5 µM
SW-620 [9] = assay: Induction of apoptosis in human SW-620 cells assessed as decrease in Bcl-2 expression at 1.25 to 5 uM incubated for 48 hrs by Western blotting analysis; format: functional, cell-based; conditions: dose 1.25-5 µM
SW-620 [10] = assay: Antiproliferative activity against human SW-620 cells assessed as reduction in cell viability at 40 uM incubated for 48 hrs by CCK-8 assay; format: functional, cell-based
SW-620 [11] = assay: Induction of apoptosis in human SW-620 cells assessed as early apoptotic cells at 5 uM incubated for 48 hrs by Annexin V FITC/PI staining based flow cytometry analysis (reference value: 5.00 %); format: functional
SW-620 [12] = assay: Induction of apoptosis in human SW-620 cells assessed as viable cells at 1.25 uM incubated for 48 hrs by Annexin V FITC/PI staining based flow cytometry analysis (reference value: 90.0 %); format: functional; conditions: read-out: Activity
MDA-MB-231 = assay: Antiproliferative activity against human MDA-MB-231 cells assessed as reduction in cell viability by CCK-8 assay; format: functional, cell-based; conditions: dose 40.0 µM, time 48.0 hrs
SW-620 [13] = assay: Induction of apoptosis in human SW-620 cells assessed as necrotic cells at 2.5 uM incubated for 48 hrs by Annexin V FITC/PI staining based flow cytometry analysis (reference value: 0.057 %); format: functional
SW-620 [14] = assay: Induction of apoptosis in human SW-620 cells assessed as viable cells at 5 uM incubated for 48 hrs by Annexin V FITC/PI staining based flow cytometry analysis (reference value: 90.0 %); format: functional; conditions: read-out: Activity
SW-620 [15] = assay: Antiproliferative activity against human SW-620 cells assessed as change in F-actin cytoskeleton density at 2.5 to 5 uM incubated for 48 hrs by DAPI staining based laser confocal microscope analysis; format: functional, cell-based; conditions: dose 2.5-5 µM
SW-620 [16] = assay: Antiproliferative activity against human SW-620 cells assessed as inhibition of cell proliferation by measuring decrease in fluorescence intensity incubated for 48 hrs by EdU incorporation based fluorescence microscopic analysis; format: functional; conditions: dose 1.25-5 µM
SW-620 [17] = assay: Antiproliferative activity against human SW-620 cells assessed as change in F-actin cytoskeleton morphology at 1.25 uM incubated for 48 hrs by DAPI staining based laser confocal microscope analysis; format: functional, cell-based
SW-620 [18] = assay: Induction of apoptosis in human SW-620 cells assessed as late apoptotic cells at 5 uM incubated for 48 hrs by Annexin V FITC/PI staining based flow cytometry analysis (reference value: 4.90 %); format: functional
SW-620 [19] = assay: Induction of apoptosis in human SW-620 cells assessed as increase in Bax expression at 1.25 to 5 uM incubated for 48 hrs by Western blotting analysis; format: functional, cell-based; conditions: dose 1.25-5 µM
SW-620 [20] = assay: Induction of apoptosis in human SW-620 cells assessed as late apoptotic cells at 2.5 uM incubated for 48 hrs by Annexin V FITC/PI staining based flow cytometry analysis (reference value: 4.90 %); format: functional
A549 = assay: Antiproliferative activity against human A549 cells assessed as reduction in cell viability by CCK-8 assay; format: functional, cell-based
SW-620 [21] = assay: Antiproliferative activity against human SW-620 cells assessed as reduction in cell viability incubated for 48 hrs by CCK-8 assay; format: functional, cell-based; conditions: for IC50: SW-620, 48 h
SW-620 [22] = assay: Induction of apoptosis in human SW-620 cells assessed as necrotic cells at 1.25 uM incubated for 48 hrs by Annexin V FITC/PI staining based flow cytometry analysis (reference value: 0.057 %); format: functional
U-937 [23] = assay: Inhibition of RSL3-induced ferroptosis in human U-937 cells; format: functional, cell-based
Jurkat = assay: Antiproliferative activity against human Jurkat cells assessed as reduction in cell viability incubated for 48 hrs by CCK-8 assay; format: functional, cell-based
K562 = assay: Antiproliferative activity against human K562 cells assessed as reduction in cell viability incubated for 48 hrs by CCK-8 assay; format: functional, cell-based; conditions: K562, 48 h
CCRF-CEM = assay: Antiproliferative activity against human CCRF-CEM cells assessed as reduction in cell viability incubated for 48 hrs by CCK-8 assay; format: functional, cell-based
U-937 [24] = assay: Antiproliferative activity against human U-937 cells assessed as reduction in cell viability incubated for 48 hrs by CCK-8 assay; format: toxicity, cell-based; conditions: u-937, 48 h, 50 µM
THP-1 = assay: Antiproliferative activity against human THP-1 cells assessed as reduction in cell viability incubated for 48 hrs by CCK-8 assay; format: functional, cell-based; conditions: THP-1, 48 h

SMILES: C[C@H](/C=C/[C@H](CO)C(C)(C)O)[C@H]1CC(=O)C2=C3C=CC4=CC(=O)CC[C@]4(C)[C@H]3C[C@@H](O)[C@@]21C
- Activity (U-937 [1]): Active

- IC50 (SW-620 [21]): 3.1 µM
SMILES: C[C@H](/C=C/[C@H](CO)C(C)(C)O)[C@H]1CCC2=C3C=CC4=CC(=O)CC[C@]4(C)[C@H]3CC[C@@]21C
- viability at 2.5 µM (SW-620 [2]): 23.6%
- Activity (PANC-1): inactive
- Activity (SMMC-7721): inactive
- inhibition at 48 h, 40 µM [3]: < 7%
- Activity (SW-620 [4]): 12.4%
- Activity (SW-620 [5]): 1.23%
- Activity (SW-620 [6]): 6.2%
- Activity (MCF7): inactive
- Activity (SW-620 [7]): 14.1%
- Activity (SW-620 [8]): Dose-Dependent Effect
- Activity (SW-620 [9]): Active
- Activity (SW-620 [10]): Active
- Activity (SW-620 [11]): 14.6%
- viability at 1.25 µM (SW-620 [12]): 79.1%
- Activity (MDA-MB-231): inactive
- Activity (SW-620 [13]): 2.55%
- viability at 5 µM (SW-620 [14]): 3.35%
- Activity (SW-620 [15]): Active
- Activity (SW-620 [16]): Dose-Dependent Effect
- Activity (SW-620 [17]): Active
- Activity (SW-620 [18]): 80.8%
- Activity (SW-620 [19]): Active
- Activity (SW-620 [20]): 61.4%
- Activity (A549): inactive
- Activity (SW-620 [21]): Dose-Dependent Effect
- Activity (SW-620 [22]): 0.63%

SMILES: CC(=O)O[C@H]1C[C@H]([C@H](C)/C=C/[C@H](CO)C(C)(C)O)[C@]2(C)C1=C1C=CC3=CC(=O)CC[C@]3(C)[C@H]1C[C@H]2O
- Activity (U-937 [1]): Active

- EC50 (U-937 [23]): 30 µM
SMILES: CC(=O)O[C@H]1C[C@H]([C@H](C)/C=C/[C@H](C)C(C)(O)CO)[C@]2(C)C1=C1C=CC3=CC(=O)CC[C@]3(C)[C@H]1C[C@H]2O (stereo not given in full)

- IC50 (SW-620 [21]): 2.3 µM
SMILES: COc1cccc2c1C(=O)c1c(O)c3c(c(O)c1C2=O)C[C@@](O)(C(=O)CO)C[C@@H]3O[C@H]1C[C@H](N)[C@H](O)[C@H](C)O1 [DOXORUBICIN]

SMILES: C[C@H](/C=C/[C@H](CO)C(C)(C)O)[C@H]1C[C@H](O)C2=C3C=CC4=CC(=O)CC[C@]4(C)[C@H]3C[C@@H](O)[C@@]21C
- Activity (U-937 [1]): Active

- IC50 (Jurkat): 5.7 µM
- IC50 (K562): 5.7 µM
- IC50 (CCRF-CEM): 5.7 µM
- IC50 (THP-1): 5.7 µM
- IC50 (SW-620 [21]): 8.4 µM
SMILES: C[C@H](/C=C/[C@H](CO)C(C)(C)O)[C@H]1CCC2=C3C=CC4=CC(=O)CC[C@]4(C)[C@H]3C[C@@H](O)[C@@]21C
- Activity (PANC-1): inactive
- Activity (SMMC-7721): inactive
- inhibition at 48 h, 40 µM [3]: < 7%
- Activity (MCF7): inactive
- Activity (SW-620 [10]): Active
- Activity (U-937 [24]): Toxic
- Activity (MDA-MB-231): inactive
- Activity (A549): inactive
- Activity (SW-620 [21]): Dose-Dependent Effect
- Activity (U-937 [1]): Active

SMILES: C[C@H](/C=C/[C@H](C)C(C)(C)O)[C@H]1C[C@H](O)C2=C3C=CC4=CC(=O)CC[C@]4(C)[C@H]3C[C@@H](O)[C@@]21C
- Activity (U-937 [1]): Active

SMILES: CO[C@H]1C[C@H]([C@H](C)/C=C/[C@H](CO)C(C)(C)O)[C@]2(C)C1=C1C=CC3=CC(=O)CC[C@]3(C)[C@H]1C[C@H]2O
- Activity (U-937 [1]): Active

SMILES: CO[C@@H]1C[C@H]([C@H](C)/C=C/[C@H](CO)C(C)(C)O)[C@]2(C)C1=C1C=CC3=CC(=O)CC[C@]3(C)[C@H]1C[C@H]2O
- Activity (U-937 [1]): Active
